Experimental data as given in ChEMBL document CHEMBL5346907, “Discovery of a novel oral type Ⅰ CDK8 inhibitor against acute myeloid leukemia” (Eur J Med Chem, 2023).

Columns and labels:
Type in all cases: functional
A-375 = experiment: Antiproliferative activity against human A-375 cells incubated for 48 hrs by CCK8 assay
MOLM-13 = experiment: Antiproliferative activity against human MOLM-13 cells incubated for 48 hrs by CCK8 assay
MV4-11 = experiment: Antiproliferative activity against human MV4-11 cells incubated for 48 hrs by CCK8 assay
GES1 = experiment: Antiproliferative activity against human GES1 cells incubated for 48 hrs by CCK8 assay
MGC-803 = experiment: Antiproliferative activity against human MGC-803 cells incubated for 48 hrs by CCK8 assay
MDA-MB-231 = experiment: Antiproliferative activity against human MDA-MB-231 cells incubated for 48 hrs by CCK8 assay
A549 = experiment: Antiproliferative activity against human A549 cells incubated for 48 hrs by CCK8 assay

## Cc1c(Br)c(Br)c2c3c1nc(N1CCNCC1)n3CCC2 [SEL-120 FREE BASE]
A-375
  GI50: 5.9 µM
MOLM-13
  GI50: 0.02 µM
MV4-11
  GI50: 0.07 µM
GES1
  GI50: 55.3 µM
MGC-803
  GI50: 16.3 µM
MDA-MB-231
  GI50: 9.6 µM
A549
  GI50: 12.1 µM
